Data taken from PubChem BioAssay (NCI).
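Growth conditions: 96-well plates. Treatment: test compound, 48 hours, 5 concentrations. Analysis: linear interpolation between bracketing concentrations; unreached endpoints set to highest concentration. At the GI50, growth is halved. Definition used: TGI = concentration required for complete inhibition of growth.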

Test system: MDA-MB-468 breast
Test: NCI tumour cell line growth inhibition, 48 h

O=C(NO)c1cnc(N2CCN(S(=O)(=O)c3ccc4ccccc4c3)CC2)nc1
GI50: 0.0743 µM
TGI: 6.5 µM

CN(C)CCOc1nc2ccccc2c2c1-c1ccc(Cl)cc1C2=O
GI50: 0.606 µM
TGI: 1.97 µM

COc1ccc(-n2sc(=O)n(Cc3ccc(COC(=O)C(C)c4ccc(CC(C)C)cc4)cc3)c2=O)cc1 (centres undefined)
GI50: 0.925 µM
TGI: 2.13 µM

O=C(CC1(O)C(=O)Nc2c(Cl)ccc(Cl)c21)c1ccc(C2CC2)cc1 (centres undefined)
GI50: 0.297 µM
TGI: 10.2 µM

CC(C)N(C[C@H]1O[C@@H](n2cnc3c(N)ncnc32)[C@H](O)[C@@H]1O)C1CC(CCc2nc3ccc(C(C)(C)C)cc3[nH]2)C1 (some centres undefined)
GI50: 18.4 µM
TGI: > 72.6 µM

Brc1ccc(Br)nn1
GI50: 1.14 µM
TGI: 2.47 µM

CCCCCc1c(C)[nH]c(/C=c2\[nH]/c(=C3/C=c4ccccc4=N3)cc2OC)c1C
GI50: 0.0591 µM
TGI: 1.63 µM

C=C1C(=O)OC2CC3(C)OC3C3OC3C3=CC(OC3=O)C12 (centres undefined)
GI50: 1.58 µM
TGI: 3.28 µM

C=C=[CH][Sn]([c]1ccccc1)([c]1ccccc1)[c]1ccccc1
GI50: 1.34 µM
TGI: 2.66 µM

CON
GI50: > 100 µM
TGI: > 100 µM

COc1cc(/C=C/C(=O)c2ccc(Nc3nc(Nc4ccccc4)nc(Nc4ccc(Cl)cc4)n3)cc2)cc(OC)c1OC
GI50: 11.7 µM
TGI: > 32.5 µM

C/C(=N\Nc1cccc(Cl)n1)c1ccccn1
GI50: 0.764 µM
TGI: 2.42 µM

CCS/C(Nc1ccccc1)=C(\C#N)C(=O)N/N=C/c1ccc(Cl)cc1Cl
GI50: 2.6 µM
TGI: 9.19 µM

N#Cc1c(Oc2ccc(F)c(NC(=O)Cc3cccc(C(F)(F)F)c3)c2)ccc2nc(NC(=O)C3CC3)sc12
GI50: 3.98 µM
TGI: > 100 µM

COc1ccc(C2C3=C(COC3=O)N(CCO)c3cc4c(cc32)OCCO4)cc1OC (centres undefined)
GI50: 0.786 µM
TGI: 5.19 µM

CCNCCNc1cc(-c2cccc(C(F)(F)F)c2)c(C#N)c2nc3ccccc3n12
GI50: 1.34 µM
TGI: 2.84 µM

Cc1cc2c(C(C)C)c(O)c(O)c(C=O)c2c(O)c1-c1c(C)cc2c(C(C)C)c(O)c(O)c(C=O)c2c1O (tested in a mixture with another compound)
GI50: 1.01 µM
TGI: 3.75 µM

C=C(C)[C@@H]1CC[C@]2(C)[C@H](C=CC3=C4C[C@@](C)(CO)CC[C@]4(C)CC[C@]32C)[C@@]1(C)CCCN
GI50: 1.58 µM
TGI: 3.2 µM

CN(NC(=O)CC(=O)NN(C)C(=S)c1ccc(Cl)cc1)C(=S)c1ccc(Cl)cc1
GI50: 23.9 µM
TGI: > 100 µM

COc1cc(C2C(C#N)=C(N)Oc3cc4c(cc32)OCO4)cc2c1OCO2 (centres undefined)
GI50: 0.112 µM
TGI: 0.836 µM

CNCCOc1nc2c3cnccc3cc(-c3cc(OC)c(OC)c(OC)c3)c2c2ccncc12
GI50: 0.0278 µM
TGI: 0.106 µM

O=C(Nc1ccc(S(=O)(=O)NC2CCCCCC2)cc1)C(c1ccccc1)S(=O)(=O)c1ccc(F)cc1 (centres undefined)
GI50: 0.863 µM
TGI: 3.23 µM

N#CC[C@H](C1CCCC1)n1cc(-c2ncnc3[nH]ccc23)cn1
GI50: 23.2 µM
TGI: 78.8 µM

CC(=O)OCC(=O)C1(O)C(C)CC2C3C=C(C)C4=Cc5c(cnn5-c5ccccc5)CC4(C)C3C(O)CC21C (centres undefined)
GI50: 2.03 µM
TGI: 4.33 µM

CCCCCCC1N=C(N)N=C(N)N1c1ccc(Cl)cc1 (centres undefined)
GI50: 1.35 µM
TGI: 4.72 µM

C[C@@H](Oc1cc(-c2cnn(C3CC4(CCCNC4)C3)c2)cnc1N)c1c(Cl)ccc(F)c1Cl (some centres undefined)
GI50: 1.09 µM
TGI: 2.49 µM

CC(=O)N[C@@H](Cc1ccc(OP(=O)(O)O)cc1)C(=O)N[C@H]1CCC(=O)N2CCC[C@@H](C(=O)NCc3ccc(O)cc3)N2C1=O
GI50: > 25 µM
TGI: > 25 µM

CCOc1cc(/C=N\NC(=O)N/N=C/c2ccc(O)c(OCC)c2)ccc1O
GI50: 1.44 µM
TGI: 7.27 µM

CC[C@H](C)[C@H](NC(=O)C12CC(NC(C)=O)(C1)C2)C(=O)N(C)[C@H](C[C@@H](OC(C)=O)c1nc(C(=O)N[C@@H](Cc2ccccc2)C[C@H](C)C(=O)OC)cs1)C(C)C
GI50: 0.0584 µM
TGI: > 9.3 µM

CCN1C(=O)N(CC)C2C1NN=c1s/c(=C\c3ccccc3)c(=O)n12 (centres undefined)
GI50: 0.0867 µM
TGI: > 100 µM

N#CSCC(=O)c1ccc(Cl)cc1
GI50: 2.28 µM
TGI: 10.4 µM

COc1cccc(Nc2nccc(Nc3ccc4[nH]ncc4c3)n2)c1
GI50: 1.25 µM
TGI: 2.77 µM

O=c1cc(-c2ccccc2Cl)[nH]c2cc3c(cc12)OCO3
GI50: 13.9 µM
TGI: > 100 µM

COC(=O)Nc1nc2ccc(Sc3ccccc3)cc2[nH]1
GI50: 0.165 µM
TGI: 1.53 µM

CN1CCN(c2ccc3nc4c(nc3c2C(F)(F)F)C(=O)c2ncccc2C4=O)CC1
GI50: 1.06 µM
TGI: 2.58 µM

O=[N+]([O-])c1ccc(-c2ccccc2)c([As](=O)(O)O)c1
GI50: 11.8 µM
TGI: 28.1 µM

Cc1cc2nc3c4ccccc4n(CCN(C)C)c3nc2cc1C
GI50: 1.32 µM
TGI: 3.62 µM

CS[C@@]1(C(=O)Nc2ccc3[nH]nc(-c4ccc(OC(C)C)nc4)c3c2)CCN(CC(=O)N2CC=C(c3ccc(-c4ncn(C)n4)cc3)CC2)C1
GI50: > 100 µM
TGI: > 100 µM

C[C@@H]1CN2[C@H]3[C@@H]1CC[C@]31CCC(=O)O[C@]1(C)[C@@H]1CC[C@H]3CCC=C3[C@@H]12
GI50: > 70 µM
TGI: > 70 µM

COc1ccc(NC(=O)O[C@H]2[C@H](O[C@H]3[C@@H](O)COC(O[C@H]4C[C@H]5[C@@H]6CC=C7C[C@@H](O)CC[C@]7(C)[C@H]6CC[C@]5(C)[C@H]4[C@H](C)C(=O)CCC(C)C)[C@@H]3OC(C)=O)OC[C@@H](O)[C@@H]2O)cc1 (some centres undefined)
GI50: < 0.01 µM
TGI: 0.63 µM

CCN(CC)c1ccc2nc3c4ccccc4c(=NC(=O)c4ccccc4-c4c5ccc(N(CC)CC)cc5[o+]c5cc(N(CC)CC)ccc45)cc-3oc2c1
GI50: 1.01 µM
TGI: 2.43 µM

Oc1[nH]c2ccc(Cl)cc2c1/C=c1/ccc2c(c1)N=C(c1cc(F)cc(F)c1)N=2
GI50: 3.46 µM
TGI: 13.2 µM

CCOC(=O)C(Cc1ccc(OC)cc1)C(=O)OCC
GI50: 4.17 µM
TGI: 20.6 µM

CCc1ccccc1-n1c(N)c(C#N)c(-c2ccc(OC)c(OC)c2)c(C#N)c1=O
GI50: 37.6 µM
TGI: > 100 µM

COc1ccc2c(c1)Oc1nc(N)c(C#N)c(N)c1C2Sc1ccc(C)cc1 (centres undefined)
GI50: 1.2 µM
TGI: 2.6 µM

COc1cnc2c(c1)C(=O)c1c-2n(CCCN2CCN(CCO)CC2)c(=O)c2cc([N+](=O)[O-])ccc12
GI50: 2.47 µM
TGI: 7.54 µM

ClC1=C(Cl)C(Cl)=C(Cl)C1=Cc1ccc(Cl)cc1
GI50: 0.251 µM
TGI: 0.869 µM
